Measurements: US7897846B2, “Maize event DP-098140-6 and compositions and methods for the identification and/or detection thereof” (Pioneer Hi-Bred Int'l, Inc., priority 2006, dated 2011)
Read-outs that look alike come from different tables or passages of the source.

How the values were obtained:
DP-098140-6 maize [1] = experiment: Greenhouse herbicide tolerance, visual herbicide injury rating, two generations; type: in vivo, Zea mays; conditions: applied at V4
Description: (§1) The objective of this study was to evaluate the herbicide tolerance and protein expression in maize containing the event DP-098140-6.
(§2) Plants were grown in a greenhouse using a randomized complete block design containing four blocks. Each block consisted of twenty-four flats. Flats representing entries 1-12 (segregating 1:1) contained approximately fifteen plants per entry, while flats representing entries 13-24 (non-segregating) contained approximately ten plants per entry. Trait confirmation for GLYAT4621 was conducted for test and control entries at the V2 growth stage using lateral flow strip tests specific for the GLYAT protein. Plants with positive trait confirmation results (expressing GLYAT4621) were used for test entries and plants with negative trait confirmation results (not expressing GLYAT4621) were used as the control entries. Any remaining negative segregants not used for controls were then removed and remaining positive plants were thinned to 5 plants per entry within each block (treatment). At the V4 growth stage, a herbicide treatment containing glyphosate (1.46 L/ha or 20 oz/acre)+nonionic surfactant (0.25% vol./vol.)+ammonium sulfate (3.4 kg/ha) was applied to entries 1, 9, 13, and 21; herbicides containing thifensulfuron (3.5 g/ha or 0.5 oz/acre) and tribenuron (3.5 g/ha or 0.5 oz/acre) each containing nonionic surfactant (0.25% vol./vol.)+ammonium sulfate (3.4 kg/ha) were applied to entries 2, 10, 14 and 22; and a tank mixture of herbicides containing glyphosate, thifensulfuron and tribenuron was applied to entries 3, 11, 15, and 23 (Table 15).
(§3) Herbicide injury was evaluated visually at 14 and 21 days after herbicide application by estimating herbicide injury percentage, where “0” represented no visible injury and “100” represented complete plant death. The injury rating took into account all symptoms of herbicide injury when compared to the untreated entry for the same maize line. Injury symptoms included discoloration, leaf speckling, and wilting. The untreated entries for each maize line were rated as 0% injury and the herbicide treated entries of the same maize line were rated by comparing them to this untreated entry. Photographs were taken at 21 days following herbicide application to record herbicide injury. In order to further characterize tolerance to ALS-inhibiting herbicides, a characteristic of the zm-hra gene in DP-098140-6 maize, plant heights were measured for all entries at 14 and 21 days post herbicide treatment. Plant height was measured in cm from the soil surface to the tip of the highest leaf when extended by hand.
(§4) Means, standard error and P-values were calculated for plant height data. Means were calculated for herbicide injury scores. Means, ranges and standard deviations of protein expression data were calculated for each protein expressed in leaf and seed tissues.

[2] = tested on: near isoline control maize; experiment: as above; type: in vivo, Zea mays; conditions: for Average Herbicide Injury Rating: Control maize, 0-100 scale, applied at V4
Description: as §1, §2, §3, §4

DP-098140-6 maize [3] = type: in vivo, Zea mays; conditions: 98140 maize
Description: as §2, §3, §4

[4] = tested on: near isoline control maize; type: in vivo, Zea mays
Description: as §2, §3, §4

[5] = GLYAT4621 sandwich ELISA, leaf tissue at V5 stage (pg/μg total extractable protein); set-up: species or system Zea mays; conditions: DP-098140-6 maize leaf tissue, V5 growth stage, greenhouse; 20 plants
Description: Expression of the GLYAT4621 and Zm-HRA proteins has been evaluated on the leaf tissue collected at the V5 stage of growth from plants cultivated in greenhouses. For each sample, four fresh leaf punches were collected and ground in sample extraction buffer using a GenoGrinder (Spex Certiprep). Total Extractable Protein (TEP) was determined using the Bio-Rad Protein assay, which is based on the Bradford dye-binding procedure. Sample extracts were diluted in sample extraction buffer for ELISA analysis.
The GLYAT4621 and ZM-HRA ELISA's utilize a “sandwich” format for the quantification of the specific target protein in plant tissue extracts. […] The reaction is stopped with Sulfuric acid and the optical density of each well is determined using a Molecular Devices plate reader with a wavelength setting of 450 nm-650 nm. […] The mean concentration from the duplicate wells is expressed as pg target protein/μg of total extractable protein (TEP). The sample lower limit of quantification (LLOQ) was 10 pg GLYAT4621 protein/μg TEP and the upper detection limit was 2000 pg GLYAT4621 protein/μg TEP. The sample lower limit of quantification was 20 pg ZM-HRA protein/μg TEP and the upper detection limit was 5000 pg ZM-HRA protein/μg TEP.

Molecule	Average Herbicide Injury Rating (DP-098140-6 maize [1]; Generation 1, 14 days post-treatment, 0 = no visible injury, 100 = complete plant death)	Average Herbicide Injury Rating (DP-098140-6 maize [1]; Generation 1, 21 days post-treatment, 0-100 scale)	Average Herbicide Injury Rating (DP-098140-6 maize [1]; Generation 2, 14 days post-treatment, 0-100 scale)	Average Herbicide Injury Rating (DP-098140-6 maize [1]; Generation 2, 21 days post-treatment, 0-100 scale)	Average Herbicide Injury Rating ([2]; Generation 1, 14 days post-treatment)	Average Herbicide Injury Rating ([2]; Generation 1, 21 days post-treatment)	Average Herbicide Injury Rating ([2]; Generation 2, 14 days post-treatment)	Average Herbicide Injury Rating ([2]; Generation 2, 21 days post-treatment)	injury ([2]; sprayed control maize, both generations) [%]	Plant height, Least Square Means (DP-098140-6 maize [3]; Generation 1, 14 days following treatment) [cm]	Plant height, Least Square Means (DP-098140-6 maize [3]; Generation 1, 21 days following treatment) [cm]	Plant height, Least Square Means (DP-098140-6 maize [3]; Generation 2, 14 days following treatment) [cm]	Plant height, Least Square Means (DP-098140-6 maize [3]; Generation 2, 21 days following treatment) [cm]	Plant height, Least Square Means ([4]; Generation 1, 14 days following treatment, 0 cm = visible plant that has died due to herbicide treatment) [cm]	Plant height, Least Square Means ([4]; Generation 1, 21 days following treatment, 0 cm = visible plant that has died due to herbicide treatment) [cm]	Plant height, Least Square Means ([4]; Generation 2, 14 days following treatment, 0 cm = plant died due to herbicide) [cm]	Plant height, Least Square Means ([4]; Generation 2, 21 days following treatment, 0 cm = plant died due to herbicide) [cm]	Expression level of GLYAT4621 protein, Mean [5] [pg/μg TEP]
O=C(O)CNCP(=O)(O)O [Glyphosate, glyphosate]	0	0	0	0	100	100	100	100	100	103	120	101	115	0.00	0.00	0.00	0.00	
GLYAT4621: glyphosate acetyltransferase protein encoded by the glyat4621 gene, expressed in DP-098140-6 maize (protein, GAT4621 probe, glyphosate acetyltransferase protein encoded by the glyat4621 gene, expressed in DP-098140-6 maize) MAIEVKPINAEDTYDLRHRVLRPNQPIEACMFESDLTRSAFHLGGFYGGKLISVASFHQAEHSELQGKKQYQLRGVATLEGYREQKAGSSLVKHAEEILRKRGADMIWCNARTSASGYYRKLGFSEQGEVFDTPPVGPHILMYKR																		571.7
